Series [1] has as its system HIV-1 BaL. Put plainly: anti-HIV bioassay: HIV-1 p24 production in infected PHA-activated PBMCs (ELISA, day 7). It counts as cell-based. The note with it: PBMCs infected with HIV-1 BaL; result in words. The method, then: Stocks of crude drug made from G. officinale L. were prepared in Dimethyl sulfoxide (DMSO) in a stock solution of 10 mg/ml. Dilutions from the stock were made and the final concentration of DMSO in the cultures was always <0.1% to avoid cell toxicity. Peripheral blood mononuclear cells (PBMCs) were separated from buffy coats of HIV-1 seronegative donors (New York Blood Center, NY) by density centrifugation over Ficoll-Hypaque (Sigma). Briefly, the buffy coat suspension was diluted 1:2 with phosphate-buffered saline solution (PBS). Then, 35 ml were layered onto 15 ml of Ficoll® Paque PLUS (GE Healthcare), a ready to use sterile medium for isolation of lymphocytes and were centrifuged by standard ficoll-paque gradient centrifugation according to manufacturer's protocol (GE Healthcare) for 25 min at 400×g. The white interphase containing the PBMCs was collected and washed three times with PBS. […] On day 7, HIV-1 p24 protein production in the culture supernatant was measured using a commercial ELISA kit (Coulter, Hialeah, Fla.) and cell viability using a colorimetric MTT kit (Roche). […] The quantity of formazan produced (absorbance at 490 nm) is directly proportional to the number of living cells. […] MTT conversion to formazan by mitochondrial dehydrogenase was assayed by optical density at 490 nm measured in an ELISA plate reader. […]
In general terms: In an ELISA, binding on a coated surface is turned into a signal by an enzyme label.

Series [2] concerns 3 cancer cell lines. As to the kind of experiment: cell proliferation assay against cancer cell lines. It counts as cell-based. The settings on record: result in words.
Series [3] concerns Pseudomonas pseudomaliae. The note with it: result in words; cited from earlier work.
Series [4] concerns brine shrimp. The settings on record: result in words; cited from earlier work.

For `CC1(C)CC[C@]2(C(=O)O)CC[C@]3(C)C(=CC[C@@H]4[C@@]5(C)CC[C@H](O[C@@H]6OC[C@@H](O)[C@H](OC7O[C@H](CO)[C@H](O)[C@H](O)[C@H]7O)[C@H]6O)C(C)(C)[C@@H]5CC[C@]43C)[C@@H]2C1` (stereo partly shown) [HL-038], the Anti-HIV-1 activity entry in series [1] is on record as “moderate activity”. In addition, the “activity against 3 cancer cell lines” value in series [2] is on record as “moderate activity”.
Turning to guaianin N, the “antibacterial activity against Pseudomonas pseudomaliae” value in series [3] was “antibacterial activity”. Also, the brine shrimp toxicity result in series [4] is “toxicity”.
